Test results published in patent US6358885B1, “Substituted phenylheterocyclic herbicides” (Mississippi State University, priority 1992, dated 2002).

Legend:
Assay in all cases: Test B preemergence/postemergence greenhouse plant response rating 0 to 10
[1] = system: rice; assay type: in vivo, Oryza sativa; settings: for Plant response rating, Rice: 0 to 10 scale
Method in brief: (§1)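 Both application timings were run together: seeds got compound preemergence, and established seedlings (two to eighteen cm) got it postemergence. Non-phytotoxic solvent carried the chemical. Ratings are visual, versus controls, at twelve to sixteen days.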

[2] = system: lambsquarters; assay type: in vivo, Chenopodium album; settings: for Plant response rating, Lambsquarter: 0 to 10 scale
Method in brief: as §1

[3] = system: crabgrass; assay type: in vivo, Digitaria spp.; settings: for Plant response rating, Crabgrass: 0 to 10 scale
Method in brief: as §1

[4] = system: sorghum; assay type: in vivo, Sorghum bicolor; settings: for Plant response rating, Sorghum: 0 to 10 scale
Method in brief: as §1

[5] = system: barnyardgrass; assay type: in vivo, Echinochloa crus-galli; settings: for Plant response rating, Barnyardgrass: 0 to 10 scale
Method in brief: as §1

[6] = system: blackgrass; assay type: in vivo, Alopecurus myosuroides; settings: for Plant response rating, Blackgrass: 0 to 10 scale
Method in brief: as §1

[7] = system: rape; assay type: in vivo, Brassica napus; settings: for Plant response rating, Rape: 0 to 10 scale
Method in brief: as §1

[8] = system: purple nutsedge; assay type: in vivo, Cyperus rotundus; settings: for Plant response rating, Nutsedge: 0 to 10 scale
Method in brief: as §1

[9] = system: wild buckwheat; assay type: in vivo, Polygonum convolvulus; settings: for Plant response rating, Wild buckwheat: 0 to 10 scale
Method in brief: as §1

[10] = system: cheatgrass; assay type: in vivo, Bromus secalinus; settings: for Plant response rating, Cheatgrass: 0 to 10 scale
Method in brief: as §1

[11] = system: wheat; assay type: in vivo, Triticum aestivum; settings: for Plant response rating, Wheat: 0 to 10 scale
Method in brief: as §1

[12] = system: soybean; assay type: in vivo, Glycine max; settings: for Plant response rating, Soybean: 0 to 10 scale
Method in brief: as §1

[13] = system: morningglory; assay type: in vivo, Ipomoea hederacea; settings: for Plant response rating, Morningglory: 0 to 10 scale
Method in brief: as §1

[14] = system: corn; assay type: in vivo, Zea mays; settings: for Plant response rating, Corn: 0 to 10 scale
Method in brief: as §1

[15] = system: chickweed; assay type: in vivo, Stellaria media; settings: for Plant response rating, Chickweed: 0 to 10 scale
Method in brief: as §1

[16] = system: velvetleaf; assay type: in vivo, Abutilon theophrasti; settings: for Plant response rating, Velvetleaf: 0 to 10 scale
Method in brief: as §1

[17] = system: bedstraw; assay type: in vivo, Galium aparine; settings: for Plant response rating, Bedstraw: 0 to 10 scale
Method in brief: as §1

[18] = system: barley; assay type: in vivo, Hordeum vulgare; settings: for Plant response rating, Barley: 0 to 10 scale
Method in brief: as §1

[19] = system: sugar beet; assay type: in vivo, Beta vulgaris; settings: for Plant response rating, Sugar beet: 0 to 10 scale
Method in brief: as §1

[20] = system: cocklebur; assay type: in vivo, Xanthium pensylvanicum; settings: for Plant response rating, Cocklebur: 0 to 10 scale
Method in brief: as §1

[21] = system: wild oat; assay type: in vivo, Avena fatua; settings: for Plant response rating, Wild oat: 0 to 10 scale
Method in brief: as §1

[22] = system: cotton; assay type: in vivo, Gossypium hirsutum; settings: for Plant response rating, Cotton: 0 to 10 scale
Method in brief: as §1

[23] = system: giant foxtail; assay type: in vivo, Setaria faberii; settings: for Plant response rating, Giant foxtail: 0 to 10 scale
Method in brief: as §1

## CC(C)(C)C(=O)COc1cc(-c2nn3c(c2Cl)CCCC3)c(Cl)cc1Cl [Compound 77]
[1]; POSTEMERGENCE, Rate 50 g/ha
  Plant response rating, Rice: 4
[1]; PREEMERGENCE, Rate 50 g/ha
  Plant response rating, Rice: 0
[1]; PREEMERGENCE, Rate 200 g/ha
  Plant response rating (0 to 10 scale), Rice: 0
[1]; Rate 200 g/ha, POSTEMERGENCE
  Plant response rating, Rice: 6
[2]; POSTEMERGENCE, Rate 50 g/ha
  Plant response rating, Lambsquarter: 10
[2]; PREEMERGENCE, Rate 50 g/ha
  Plant response rating, Lambsquarter: 10
[2]; PREEMERGENCE, Rate 200 g/ha
  Plant response rating (0 to 10 scale), Lambsquarter: 10
[2]; Rate 200 g/ha, POSTEMERGENCE
  Plant response rating, Lambsquarter: 10
[3]; POSTEMERGENCE, Rate 50 g/ha
  Plant response rating, Crabgrass: 5
[3]; PREEMERGENCE, Rate 50 g/ha
  Plant response rating, Crabgrass: 2
[3]; PREEMERGENCE, Rate 200 g/ha
  Plant response rating (0 to 10 scale), Crabgrass: 3
[3]; Rate 200 g/ha, POSTEMERGENCE
  Plant response rating, Crabgrass: 6
[4]; POSTEMERGENCE, Rate 50 g/ha
  Plant response rating, Sorghum: 5
[4]; PREEMERGENCE, Rate 50 g/ha
  Plant response rating, Sorghum: 0
[4]; PREEMERGENCE, Rate 200 g/ha
  Plant response rating (0 to 10 scale), Sorghum: 0
[4]; Rate 200 g/ha, POSTEMERGENCE
  Plant response rating, Sorghum: 5
[5]; POSTEMERGENCE, Rate 50 g/ha
  Plant response rating, Barnyardgrass: 4
[5]; PREEMERGENCE, Rate 50 g/ha
  Plant response rating, Barnyardgrass: 0
[5]; PREEMERGENCE, Rate 200 g/ha
  Plant response rating (0 to 10 scale), Barnyardgrass: 3
[5]; Rate 200 g/ha, POSTEMERGENCE
  Plant response rating, Barnyardgrass: 8
[6]; POSTEMERGENCE, Rate 50 g/ha
  Plant response rating, Blackgrass: 2
[6]; PREEMERGENCE, Rate 50 g/ha
  Plant response rating, Blackgrass: 2
[6]; PREEMERGENCE, Rate 200 g/ha
  Plant response rating (0 to 10 scale), Blackgrass: 3
[6]; Rate 200 g/ha, POSTEMERGENCE
  Plant response rating, Blackgrass: 3
[7]; POSTEMERGENCE, Rate 50 g/ha
  Plant response rating, Rape: 6
[7]; PREEMERGENCE, Rate 50 g/ha
  Plant response rating, Rape: 0
[7]; PREEMERGENCE, Rate 200 g/ha
  Plant response rating (0 to 10 scale), Rape: 6
[7]; Rate 200 g/ha, POSTEMERGENCE
  Plant response rating, Rape: 7
[8]; POSTEMERGENCE, Rate 50 g/ha
  Plant response rating, Nutsedge: 2
[8]; PREEMERGENCE, Rate 50 g/ha
  Plant response rating, Nutsedge: 0
[8]; PREEMERGENCE, Rate 200 g/ha
  Plant response rating (0 to 10 scale), Nutsedge: 0
[8]; Rate 200 g/ha, POSTEMERGENCE
  Plant response rating, Nutsedge: 2
[9]; POSTEMERGENCE, Rate 50 g/ha
  Plant response rating, Wild buckwheat: 10
[9]; PREEMERGENCE, Rate 50 g/ha
  Plant response rating, Wild buckwheat: 8
[9]; PREEMERGENCE, Rate 200 g/ha
  Plant response rating (0 to 10 scale), Wild buckwheat: 9
[9]; Rate 200 g/ha, POSTEMERGENCE
  Plant response rating, Wild buckwheat: 10
[10]; POSTEMERGENCE, Rate 50 g/ha
  Plant response rating, Cheatgrass: 2
[10]; PREEMERGENCE, Rate 50 g/ha
  Plant response rating, Cheatgrass: 3
[10]; PREEMERGENCE, Rate 200 g/ha
  Plant response rating (0 to 10 scale), Cheatgrass: 5
[10]; Rate 200 g/ha, POSTEMERGENCE
  Plant response rating, Cheatgrass: 3
[11]; POSTEMERGENCE, Rate 50 g/ha
  Plant response rating, Wheat: 2
[11]; PREEMERGENCE, Rate 50 g/ha
  Plant response rating, Wheat: 0
[11]; PREEMERGENCE, Rate 200 g/ha
  Plant response rating (0 to 10 scale), Wheat: 0
[11]; Rate 200 g/ha, POSTEMERGENCE
  Plant response rating, Wheat: 5
[12]; POSTEMERGENCE, Rate 50 g/ha
  Plant response rating, Soybean: 5
[12]; PREEMERGENCE, Rate 50 g/ha
  Plant response rating, Soybean: 0
[12]; PREEMERGENCE, Rate 200 g/ha
  Plant response rating (0 to 10 scale), Soybean: 0
[12]; Rate 200 g/ha, POSTEMERGENCE
  Plant response rating, Soybean: 7
[13]; POSTEMERGENCE, Rate 50 g/ha
  Plant response rating, Morningglory: 8
[13]; PREEMERGENCE, Rate 50 g/ha
  Plant response rating, Morningglory: 0
[13]; PREEMERGENCE, Rate 200 g/ha
  Plant response rating (0 to 10 scale), Morningglory: 0
[13]; Rate 200 g/ha, POSTEMERGENCE
  Plant response rating, Morningglory: 9
[14]; POSTEMERGENCE, Rate 50 g/ha
  Plant response rating, Corn: 3
[14]; PREEMERGENCE, Rate 50 g/ha
  Plant response rating, Corn: 0
[14]; PREEMERGENCE, Rate 200 g/ha
  Plant response rating (0 to 10 scale), Corn: 0
[14]; Rate 200 g/ha, POSTEMERGENCE
  Plant response rating, Corn: 3
[15]; POSTEMERGENCE, Rate 50 g/ha
  Plant response rating, Chickweed: 2
[15]; PREEMERGENCE, Rate 50 g/ha
  Plant response rating, Chickweed: 0
[15]; PREEMERGENCE, Rate 200 g/ha
  Plant response rating (0 to 10 scale), Chickweed: 1
[15]; Rate 200 g/ha, POSTEMERGENCE
  Plant response rating, Chickweed: 3
[16]; POSTEMERGENCE, Rate 50 g/ha
  Plant response rating, Velvetleaf: 10
[16]; PREEMERGENCE, Rate 50 g/ha
  Plant response rating, Velvetleaf: 3
[16]; PREEMERGENCE, Rate 200 g/ha
  Plant response rating (0 to 10 scale), Velvetleaf: 7
[16]; Rate 200 g/ha, POSTEMERGENCE
  Plant response rating, Velvetleaf: 10
[17]; POSTEMERGENCE, Rate 50 g/ha
  Plant response rating, Bedstraw: 4
[17]; PREEMERGENCE, Rate 50 g/ha
  Plant response rating, Bedstraw: 3
[17]; PREEMERGENCE, Rate 200 g/ha
  Plant response rating (0 to 10 scale), Bedstraw: 10
[17]; Rate 200 g/ha, POSTEMERGENCE
  Plant response rating, Bedstraw: 5
[18]; POSTEMERGENCE, Rate 50 g/ha
  Plant response rating, Barley: 2
[18]; PREEMERGENCE, Rate 50 g/ha
  Plant response rating, Barley: 0
[18]; PREEMERGENCE, Rate 200 g/ha
  Plant response rating (0 to 10 scale), Barley: 0
[18]; Rate 200 g/ha, POSTEMERGENCE
  Plant response rating, Barley: 3
[19]; POSTEMERGENCE, Rate 50 g/ha
  Plant response rating, Sugar beet: 10
[19]; PREEMERGENCE, Rate 50 g/ha
  Plant response rating, Sugar beet: 3
[19]; PREEMERGENCE, Rate 200 g/ha
  Plant response rating (0 to 10 scale), Sugar beet: 3
[19]; Rate 200 g/ha, POSTEMERGENCE
  Plant response rating, Sugar beet: 10
[20]; POSTEMERGENCE, Rate 50 g/ha
  Plant response rating, Cocklebur: 7
[20]; PREEMERGENCE, Rate 50 g/ha
  Plant response rating, Cocklebur: 0
[20]; PREEMERGENCE, Rate 200 g/ha
  Plant response rating (0 to 10 scale), Cocklebur: 1
[20]; Rate 200 g/ha, POSTEMERGENCE
  Plant response rating, Cocklebur: 9
[21]; POSTEMERGENCE, Rate 50 g/ha
  Plant response rating, Wild oat: 1
[21]; PREEMERGENCE, Rate 50 g/ha
  Plant response rating, Wild oat: 0
[21]; PREEMERGENCE, Rate 200 g/ha
  Plant response rating (0 to 10 scale), Wild oat: 0
[21]; Rate 200 g/ha, POSTEMERGENCE
  Plant response rating, Wild oat: 3
[22]; POSTEMERGENCE, Rate 50 g/ha
  Plant response rating, Cotton: 10
[22]; PREEMERGENCE, Rate 50 g/ha
  Plant response rating, Cotton: 0
[22]; PREEMERGENCE, Rate 200 g/ha
  Plant response rating (0 to 10 scale), Cotton: 0
[22]; Rate 200 g/ha, POSTEMERGENCE
  Plant response rating, Cotton: 10
[23]; POSTEMERGENCE, Rate 50 g/ha
  Plant response rating, Giant foxtail: 5
[23]; PREEMERGENCE, Rate 50 g/ha
  Plant response rating, Giant foxtail: 2
[23]; PREEMERGENCE, Rate 200 g/ha
  Plant response rating (0 to 10 scale), Giant foxtail: 2
[23]; Rate 200 g/ha, POSTEMERGENCE
  Plant response rating, Giant foxtail: 6
